Experimental data from PubChem BioAssay (NCI).
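Briefly, cells in 96-well plates were exposed to five compound concentrations for 48 h, and endpoints were estimated by linear interpolation. GI50 = concentration required for 50% inhibition of growth. TGI denotes the concentration required for complete inhibition of growth.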

Legend:
Experiment in all cases: DTP human tumour cell line panel, 48 h
[1] = system: ACHN renal
[2] = system: A498 renal
[3] = system: EKVX NSCLC
[4] = system: RPMI-8226 leukemia
[5] = system: OVCAR-5 ovarian
[6] = system: SW-620 colon
[7] = system: MOLT-4 leukemia
[8] = system: TK-10 renal
[9] = system: MCF7 breast
[10] = system: PC-3 prostate
[11] = system: SR leukemia

For `COc1cc2c(cc1O)c(O)cc1c3cc(OC)c(OC)cc3c[n+](C)c21`, the TGI [1] was > 100 µM, the TGI [2] was > 100 µM and the TGI [3] was > 100 µM. For the same molecule, the TGI [4] was > 100 µM, the TGI [5] was > 100 µM and the TGI [6] was > 100 µM. The TGI [7] was 40.3 µM, the TGI [8] was > 100 µM and the TGI [9] was > 100 µM. The TGI [10] was > 100 µM.

For `O=C(CSc1nnc(-c2ccccn2)s1)N/N=C/c1ccccc1`, the TGI [1] was > 100 µM, the TGI [2] was > 100 µM and the TGI [11] was > 100 µM. The TGI [5] was > 100 µM, the TGI [6] was > 100 µM and the TGI [7] was > 100 µM. For the same molecule, the TGI [8] was > 100 µM, the TGI [9] was > 100 µM and the TGI [10] was > 100 µM.

With `Clc1ccc(CCN(CCc2ccc(Cl)c(Cl)c2)CCN2CCCC2)cc1Cl` the TGI [1] was 3.2 µM, the TGI [2] was 3.23 µM and the TGI [3] was 4.4 µM. The TGI [4] was 5.38 µM, the TGI [5] was 3.23 µM and the TGI [8] was 3.17 µM. For the same molecule, the TGI [9] was 2.88 µM and the TGI [10] was 2.91 µM.

For `COc1ccc(/C=C2\N=C(N3CCCCC3)NC2=O)cc1`, the TGI [1] was > 100 µM, the TGI [11] was > 100 µM and the TGI [3] was > 100 µM. For the same molecule, the TGI [4] was > 100 µM, the TGI [5] was > 100 µM and the TGI [6] was > 100 µM. The TGI [7] was > 100 µM, the TGI [8] was > 100 µM and the TGI [9] was > 100 µM. The TGI [10] was > 100 µM.

`CCCC(C)c1ccc(OCCCCCCN2CCNCC2)cc1` (configuration not stated) showed a GI50 [1] of 2.23 µM, a TGI [1] of 5.32 µM and a GI50 [2] of 2.43 µM. For the same molecule, the TGI [2] was 9.33 µM, the GI50 [11] was 1.7 µM and the TGI [11] was 4.21 µM. The GI50 [3] was 2.34 µM, the TGI [3] was 6.63 µM and the GI50 [5] was 2.73 µM. For the same molecule, the TGI [5] was 7.9 µM, the GI50 [6] was 1.72 µM and the TGI [6] was 3.57 µM. It also gave a GI50 [7] of 1.52 µM, a TGI [7] of 3.48 µM and a GI50 [8] of 1.8 µM. It also gave a TGI [8] of 3.47 µM, a GI50 [10] of 2.02 µM and a TGI [10] of 4.94 µM.

With `COc1ccc(-c2c(C(C)=O)c(-c3ccccc3)n(C3OC(CO)C(O)C(O)C3O)c(=S)c2C#N)cc1` (configuration not stated) the TGI [1] was > 100 µM, the TGI [2] was > 100 µM and the TGI [3] was > 100 µM. For the same molecule, the TGI [5] was > 100 µM, the TGI [6] was > 100 µM and the TGI [7] was > 100 µM. The TGI [8] was > 100 µM and the TGI [9] was > 100 µM.

With `CC(=O)SCCC(NC(=S)Nc1ccccc1)P(=O)(Oc1ccccc1)Oc1ccccc1` (configuration not stated) the TGI [1] was > 100 µM, the TGI [11] was > 100 µM and the TGI [3] was > 100 µM. For the same molecule, the TGI [5] was > 100 µM, the TGI [6] was > 100 µM and the TGI [7] was > 100 µM. The TGI [8] was > 100 µM and the TGI [9] was > 100 µM.

For `O=C(NN1C(=O)C(Cl)C1c1ccc(Cl)cc1)c1c(Cl)c(Cl)c(Cl)c(Cl)c1-c1nc2ccccc2[nH]1` (configuration not stated), the TGI [1] was 43.5 µM, the TGI [2] was 63.6 µM and the TGI [11] was > 100 µM. The TGI [3] was 88.7 µM, the TGI [5] was > 100 µM and the TGI [6] was > 100 µM. The TGI [7] was > 100 µM, the TGI [9] was 34.4 µM and the TGI [10] was > 100 µM.

In the case of `Cc1ccc(S(=O)(=O)Nc2cccc3c(=O)[nH]cnc23)cc1`, the TGI [1] is reported as > 100 µM, the TGI [2] is reported as > 100 µM and the TGI [11] is reported as > 100 µM. For the same molecule, the TGI [3] was > 100 µM, the TGI [4] was 97.7 µM and the TGI [5] was > 100 µM. For the same molecule, the TGI [6] was > 100 µM, the TGI [7] was > 100 µM and the TGI [8] was > 100 µM.

Molecule `C#CCn1c(=O)c(I)cn(/C(=C/C(=O)OCC)C(=O)OCC)c1=O` has a TGI [1] of 3.27 µM, a TGI [2] of 33.7 µM and a TGI [3] of 10.2 µM. For the same molecule, the TGI [4] was 2.33 µM, the TGI [5] was 31.1 µM and the TGI [6] was 4 µM. For the same molecule, the TGI [7] was 1.9 µM, the TGI [8] was 1.67 µM and the TGI [9] was 6.16 µM. For the same molecule, the TGI [10] was 11 µM.

`C=CC[C@]1(/C=N/O)CN(S(=O)(=O)CC[Si](C)(C)C)C[C@H]2CC=CC[C@H]21` showed a TGI [2] of 31.8 µM, a TGI [3] of 58.5 µM and a TGI [4] of 31.8 µM. The TGI [5] was 44.2 µM, the TGI [6] was 34.7 µM and the TGI [7] was 52.2 µM. It also gave a TGI [8] of 36.8 µM, a TGI [9] of 39.6 µM and a TGI [10] of 51.7 µM.

`N#CSCC(Cl)=CCl` (mixture of isomers) was tested, and the TGI [1] was > 100 µM, the TGI [2] was > 100 µM and the TGI [11] was > 100 µM. The TGI [3] was > 100 µM, the TGI [4] was > 100 µM and the TGI [5] was > 100 µM. The TGI [6] was > 100 µM, the TGI [7] was 97.5 µM and the TGI [8] was > 100 µM. The TGI [10] was > 100 µM.

With `Cc1n(CC(C)C)c2c([n+]1C)C(=O)c1ccccc1C2=O` the TGI [1] was 3.53 µM, the TGI [2] was 1.27 µM and the TGI [11] was 11.5 µM. The TGI [3] was 0.649 µM, the TGI [4] was 8.37 µM and the TGI [5] was 0.824 µM. It also gave a TGI [6] of 1.4 µM, a TGI [7] of 0.955 µM and a TGI [8] of 3.38 µM. It also gave a TGI [10] of 0.337 µM.

For `S=C(N/N=C/c1ccccn1)N1CCCCC1`, the TGI [1] was 3.44 µM, the TGI [11] was 0.217 µM and the TGI [3] was 17.4 µM. The TGI [4] was 1.68 µM, the TGI [5] was > 100 µM and the TGI [6] was > 100 µM. The TGI [8] was > 100 µM, the TGI [9] was 50 µM and the TGI [10] was > 100 µM.

With `CCC(CC)NC1=C(NC(C)=O)C(=O)c2ccccc2C1=O` the TGI [1] was > 50 µM, the TGI [11] was > 50 µM and the TGI [3] was > 50 µM. For the same molecule, the TGI [6] was > 50 µM, the TGI [7] was > 50 µM and the TGI [8] was > 50 µM.

In the case of `CN(C)/C=C/C(=CC=[N+](C)C)/C=C/N(C)C`, the TGI [1] is reported as > 100 µM, the TGI [2] is reported as > 100 µM and the TGI [11] is reported as > 100 µM. The TGI [4] was > 100 µM, the TGI [5] was > 100 µM and the TGI [6] was > 100 µM. For the same molecule, the TGI [7] was > 100 µM and the TGI [8] was > 100 µM.

With `CC(=O)OCC1OC(N2C(C)=C(C(C)=O)C(c3ccc(Cl)cc3)C(C#N)=C2S)C(OC(C)=O)C(OC(C)=O)C1OC(C)=O` (configuration not stated) the TGI [1] was > 100 µM, the TGI [2] was > 100 µM and the TGI [11] was > 100 µM. For the same molecule, the TGI [4] was > 100 µM, the TGI [5] was > 100 µM and the TGI [6] was > 100 µM. For the same molecule, the TGI [7] was 82.2 µM, the TGI [8] was > 100 µM and the TGI [9] was > 100 µM. The TGI [10] was > 100 µM.

For `CC1C2CC(C(S(=O)(=O)O)C2=O)C1(C)C` (configuration not stated), the TGI [1] was > 100 µM, the TGI [2] was > 100 µM and the TGI [11] was > 100 µM. The TGI [3] was > 100 µM, the TGI [5] was > 100 µM and the TGI [6] was > 100 µM. The TGI [7] was > 100 µM, the TGI [8] was > 100 µM and the TGI [9] was > 100 µM. The TGI [10] was > 100 µM.

In the case of `CC1(C)[C@@H]2CC[C@]1(C)[C@H](OC(=O)CSC#N)C2`, the TGI [1] is reported as > 100 µM, the TGI [2] is reported as > 100 µM and the TGI [3] is reported as > 100 µM. The TGI [5] was > 100 µM, the TGI [6] was 35.4 µM and the TGI [8] was > 100 µM. For the same molecule, the TGI [9] was > 100 µM and the TGI [10] was > 100 µM.

`O=C1NC(=S)N/C1=C\c1cccs1` was tested, and the TGI [3] was > 100 µM, the TGI [4] was > 100 µM and the TGI [5] was > 100 µM. The TGI [6] was > 100 µM, the TGI [7] was > 100 µM and the TGI [8] was > 100 µM. The TGI [9] was > 100 µM and the TGI [10] was > 100 µM.

`Nn1c(C23CC4CC(CC(C4)C2)C3)n[nH]c1=S` was tested, and the TGI [1] was > 100 µM, the TGI [2] was > 100 µM and the TGI [11] was > 100 µM. For the same molecule, the TGI [3] was > 100 µM, the TGI [4] was > 100 µM and the TGI [5] was > 100 µM. For the same molecule, the TGI [6] was > 100 µM, the TGI [7] was > 100 µM and the TGI [8] was > 100 µM. The TGI [10] was > 100 µM.

In the case of `OC(CNc1ccccn1)c1ccccc1` (configuration not stated), the TGI [1] is reported as > 100 µM, the TGI [2] is reported as > 100 µM and the TGI [3] is reported as > 100 µM. For the same molecule, the TGI [4] was > 100 µM, the TGI [5] was > 100 µM and the TGI [6] was > 100 µM. For the same molecule, the TGI [7] was > 100 µM, the TGI [8] was > 100 µM and the TGI [9] was > 100 µM. The TGI [10] was > 100 µM.
